Test results published in ChEMBL document CHEMBL1201862, “PubChem BioAssay data set” (2004).
Activity calls are given as the source filed them.

How the values were obtained:
[1] = Vero E6 cell cytotoxicity, dose response, cytotoxicity control for non-replicating M. tuberculosis project, secondary assay (AID 492998); assay type: functional, VeroE6; conditions: Vero C1008
[2] = THP-1 cell cytotoxicity, dose response, cytotoxicity control for non-replicating M. tuberculosis project (AID 489025); assay type: functional
[3] = HepG2 cell cytotoxicity, dose response, cytotoxicity control for non-replicating M. tuberculosis project (AID 489018); assay type: functional; conditions: Mycobacterium tuberculosis
HEK293 [4] = assay: cells; assay type: functional, cell-based; conditions: Homo sapiens
HEK293 [5] = assay: NOD1 signaling inhibitors, primary screen, cell-based, luminescence, uHTS (AID 1578); assay type: functional; conditions: Homo sapiens
HEK293 [6] = assay: cells; assay type: functional, cell-based; conditions: Homo sapiens; remark: listed apart in the source
[7] = A549 cell cytotoxicity, dose response, cytotoxicity control, plate reader, cherry-pick, antagonist series (AID 743412); assay type: functional, cell-based
[8] = target: T1, Heat shock factor protein 1 (Mus musculus, UniProt P38532); assay: inhibition of MG132-induced HSE-luciferase signal, confirmation, cell-based, NIH3T3, luminescence, dose retest (AID 2382); assay type: functional;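 further: NIH3T3 fibroblasts with HSF1-driven luciferase reporter stressed by proteasome inhibitor MG132; luminescence from HSF1-driven luciferase expression after 8 hours of MG132 stress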
T1 sequence (P38532 whole entry): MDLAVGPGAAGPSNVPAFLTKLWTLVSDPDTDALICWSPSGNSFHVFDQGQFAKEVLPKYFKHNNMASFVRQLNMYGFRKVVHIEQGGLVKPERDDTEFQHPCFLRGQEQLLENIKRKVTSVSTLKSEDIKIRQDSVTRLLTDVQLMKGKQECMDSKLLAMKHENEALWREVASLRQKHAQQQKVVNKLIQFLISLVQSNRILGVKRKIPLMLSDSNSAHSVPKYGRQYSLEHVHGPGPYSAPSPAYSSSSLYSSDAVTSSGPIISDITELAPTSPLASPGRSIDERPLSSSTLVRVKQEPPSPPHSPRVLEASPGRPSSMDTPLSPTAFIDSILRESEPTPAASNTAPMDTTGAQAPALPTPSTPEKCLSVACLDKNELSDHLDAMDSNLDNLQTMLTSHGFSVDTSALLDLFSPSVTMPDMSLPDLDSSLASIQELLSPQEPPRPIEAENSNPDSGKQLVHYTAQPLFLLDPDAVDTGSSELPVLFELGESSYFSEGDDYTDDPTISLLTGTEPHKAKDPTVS

[9] = LGR2 antagonists, dose response, cell-based, HEK293, CRE-luciferase reporter, cherry pick, set 2 (AID 743343); assay type: functional;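 further: transfected cells were stimulated with diluted bursicon conditioned medium after compound addition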
[10] = HEK293 cell cytotoxicity, dose response, cytotoxicity control, plate reader, cherry-picked samples (AID 743446); assay type: functional, cell-based
[11] = target: E3 ubiquitin-protein ligase Mdm2/Protein Mdm4 (Homo sapiens, UniProt O15151+Q00987); assay: Mdm2-MdmX interaction inhibitors, dose response, luminescence detection (AID 504593); assay type: functional
Chain of E3 ubiquitin-protein ligase Mdm2/Protein Mdm4 (Q00987 whole entry): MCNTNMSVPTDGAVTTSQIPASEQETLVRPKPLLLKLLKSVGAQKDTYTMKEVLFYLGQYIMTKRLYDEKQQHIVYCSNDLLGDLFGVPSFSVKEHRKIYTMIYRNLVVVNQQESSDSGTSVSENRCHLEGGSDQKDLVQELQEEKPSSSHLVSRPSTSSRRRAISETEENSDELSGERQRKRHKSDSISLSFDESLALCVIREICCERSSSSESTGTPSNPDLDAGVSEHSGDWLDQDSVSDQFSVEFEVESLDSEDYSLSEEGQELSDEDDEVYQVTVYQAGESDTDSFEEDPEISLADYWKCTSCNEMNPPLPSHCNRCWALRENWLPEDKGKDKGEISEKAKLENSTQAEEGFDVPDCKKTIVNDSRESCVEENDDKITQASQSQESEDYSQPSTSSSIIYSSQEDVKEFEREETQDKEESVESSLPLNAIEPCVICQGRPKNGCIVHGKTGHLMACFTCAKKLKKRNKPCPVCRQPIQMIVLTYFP
Chain of E3 ubiquitin-protein ligase Mdm2/Protein Mdm4 (O15151 whole entry): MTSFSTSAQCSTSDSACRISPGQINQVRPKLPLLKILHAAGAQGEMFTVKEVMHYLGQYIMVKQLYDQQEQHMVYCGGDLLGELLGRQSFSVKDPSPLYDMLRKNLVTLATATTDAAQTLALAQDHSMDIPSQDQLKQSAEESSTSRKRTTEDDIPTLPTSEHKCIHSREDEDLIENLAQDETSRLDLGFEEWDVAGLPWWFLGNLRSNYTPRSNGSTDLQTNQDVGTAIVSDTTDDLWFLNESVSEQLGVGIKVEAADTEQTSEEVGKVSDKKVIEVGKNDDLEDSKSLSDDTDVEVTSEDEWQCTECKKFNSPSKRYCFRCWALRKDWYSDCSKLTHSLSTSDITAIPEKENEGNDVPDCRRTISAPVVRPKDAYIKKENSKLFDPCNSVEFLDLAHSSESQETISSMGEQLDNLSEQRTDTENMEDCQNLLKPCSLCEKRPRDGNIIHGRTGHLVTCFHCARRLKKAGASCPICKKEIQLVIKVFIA

[12] = cytotoxicity in HEK-293T cells, dose response, cytotoxicity control for TCR NF-kB inhibitor project, luminescence, T-cell screen hits (AID 489026); assay type: functional, cell-based;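 further: cells exposed to compound about 14 hours before the viability readout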
[13] = MC4R antagonists, dose response, counter-screen for LGR2 antagonist project, cell-based, plate reader, cherry pick (AID 743444); assay type: functional;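 further: transfected HEK 293 cells stimulated with alpha-MSH peptide; potency of inhibitors of the alpha-MSH evoked signal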
[14] = HepG2 cell cytotoxicity, dose response, cytotoxicity control, plate reader, cherry-pick, antagonist series (AID 743416); assay type: functional, cell-based
[15] = target: T2, Short transient receptor potential channel 4 (Mus musculus, UniProt Q9QUQ5); assay: mouse TRPC4 channel inhibitors, dose response, cell-based, HEK293 TRPC4/mu-opioid, Fluo-4 calcium (AID 434942); assay type: functional;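 further: potency of inhibitors blocking the TRPC4 calcium response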
T2 sequence (Q9QUQ5 whole entry): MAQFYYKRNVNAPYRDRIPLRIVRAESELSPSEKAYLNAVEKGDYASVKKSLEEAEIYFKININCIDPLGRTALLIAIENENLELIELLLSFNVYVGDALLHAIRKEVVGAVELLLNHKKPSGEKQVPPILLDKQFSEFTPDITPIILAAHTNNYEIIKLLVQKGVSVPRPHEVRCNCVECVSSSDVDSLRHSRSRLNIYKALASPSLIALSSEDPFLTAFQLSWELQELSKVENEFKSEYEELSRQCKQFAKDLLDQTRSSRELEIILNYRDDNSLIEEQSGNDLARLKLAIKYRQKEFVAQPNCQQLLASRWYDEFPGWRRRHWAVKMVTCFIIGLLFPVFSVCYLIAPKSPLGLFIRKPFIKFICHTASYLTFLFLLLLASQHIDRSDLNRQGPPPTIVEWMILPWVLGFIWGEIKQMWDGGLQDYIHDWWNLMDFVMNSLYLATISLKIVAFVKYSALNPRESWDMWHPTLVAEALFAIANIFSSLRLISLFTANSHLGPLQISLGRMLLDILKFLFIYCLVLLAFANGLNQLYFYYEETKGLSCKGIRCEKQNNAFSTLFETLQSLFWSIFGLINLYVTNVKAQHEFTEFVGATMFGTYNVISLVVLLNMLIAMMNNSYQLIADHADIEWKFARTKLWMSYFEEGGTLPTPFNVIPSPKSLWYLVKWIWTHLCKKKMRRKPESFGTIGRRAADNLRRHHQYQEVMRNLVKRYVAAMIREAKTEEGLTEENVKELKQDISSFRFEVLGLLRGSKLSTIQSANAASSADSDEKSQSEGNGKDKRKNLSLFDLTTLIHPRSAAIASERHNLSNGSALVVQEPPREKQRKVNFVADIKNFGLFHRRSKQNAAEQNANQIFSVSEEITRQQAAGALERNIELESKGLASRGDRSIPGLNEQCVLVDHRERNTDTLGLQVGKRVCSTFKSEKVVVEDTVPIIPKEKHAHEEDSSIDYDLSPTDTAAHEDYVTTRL

[16] = ZM109 Env clade C HIV-1 fusion inhibitors, dose response, HeLa effector, CEM target cells, luciferase, cherry-pick (AID 652058); assay type: functional, cell-based
[17] = target: Neurotensin receptor type 1 (Homo sapiens, UniProt P30989); assay type: functional;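 further: Image-based confirmatory dose-response assay measuring agonist activity at NTR1; NTR1-expressing U2OS osteosarcoma cells imaged for beta-arrestin GFP spot formation; agonist potency where compounds increase beta-arrestin recruitment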
Chain of Neurotensin receptor type 1 (P30989 whole entry): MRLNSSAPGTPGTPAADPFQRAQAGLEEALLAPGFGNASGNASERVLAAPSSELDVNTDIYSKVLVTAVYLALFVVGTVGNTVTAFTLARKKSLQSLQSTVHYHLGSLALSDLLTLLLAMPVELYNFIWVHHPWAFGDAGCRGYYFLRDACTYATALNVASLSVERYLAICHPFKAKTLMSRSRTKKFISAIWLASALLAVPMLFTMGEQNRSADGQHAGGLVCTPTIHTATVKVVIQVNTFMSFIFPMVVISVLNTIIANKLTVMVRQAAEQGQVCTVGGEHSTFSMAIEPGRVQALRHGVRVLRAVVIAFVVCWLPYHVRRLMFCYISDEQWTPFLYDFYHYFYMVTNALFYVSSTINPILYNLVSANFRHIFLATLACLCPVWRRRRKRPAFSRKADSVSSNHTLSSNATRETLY

[18] = cytotoxicity toward NIH3T3 fibroblasts, dose response, counter-screen, cell-based, ATP luminescence, mouse fibroblasts (AID 2010); assay type: functional;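 further: cells exposed to compound for about 90 hours before reading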
INS1 = assay: beta cell apoptosis inhibitors, cytokine rescue, dose response, luminescence, retest (AID 449756); assay type: functional, cell-based; conditions: Rattus norvegicus;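 further: cell death triggered by IL-1 beta plus TNF-alpha plus IFN-gamma mixture; protective hits raise ATP signal compared with cytokine alone wells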
[19] = inhibitors of HIV Env-driven cell fusion, dose response, cherry-pick (AID 652057); assay type: functional, cell-based
[20] = off-target signal loss in HeLa-CEM21 co-culture – HeLa F-luc CTL cells, cherry-picked, counter-screen for HIV-1 Env fusion inhibitor project, dose response (AID 652040); assay type: functional, cell-based;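 further: potency for signal decrease marking cytotoxic or nonspecific inhibition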
[21] = inhibitors of intracellular T. cruzi replication, confirmation, NIH3T3 host cells, beta-gal luminescence (AID 2044); assay type: functional, cell-based;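 further: intracellular parasites grown in NIH/3T3 mouse fibroblasts as host cells; luminescent beta-galactosidase reporter signal from transgenic T. cruzi replicating inside host cells; inhibitors lower the luminescence signal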
[22] = CEM21 lymphoblast cell cytotoxicity, dose response, cytotoxicity control for viral fusion inhibitor project, CellTiter-Glo luminescence, cherry-picked (AID 652042); assay type: functional, cell-based;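 further: potency for signal decrease meaning cytotoxicity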
[23] = inhibitors of clade B AD8 Env fusion, dose response, cell-based, cherry-pick (AID 652062); assay type: functional;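 further: luciferase signal from cell-cell fusion driven by HIV-1 clade B AD8 Env; potency is for inhibitors of fusion seen as a drop in luminescence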
[24] = target: G-protein coupled receptor 55 (Homo sapiens, UniProt Q9Y2T6); assay: GPR55 antagonists blocking LPI-driven arrestin recruitment, primary screen, imaging, U2OS, beta-arrestin-GFP, LPI agonist (AID 2013); assay type: functional;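 further: antagonist potency measured as reduced agonist-driven arrestin aggregation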
Chain of G-protein coupled receptor 55 (Q9Y2T6 whole entry): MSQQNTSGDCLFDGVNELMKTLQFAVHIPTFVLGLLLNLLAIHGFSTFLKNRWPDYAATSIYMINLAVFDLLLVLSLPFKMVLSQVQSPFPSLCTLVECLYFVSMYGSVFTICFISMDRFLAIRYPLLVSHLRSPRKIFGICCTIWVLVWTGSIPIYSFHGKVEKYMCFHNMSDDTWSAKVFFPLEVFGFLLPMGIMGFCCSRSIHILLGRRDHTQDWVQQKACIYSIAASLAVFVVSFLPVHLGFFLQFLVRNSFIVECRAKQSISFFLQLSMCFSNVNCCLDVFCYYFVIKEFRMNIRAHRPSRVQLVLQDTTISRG

cells = assay type: functional
[25] = Luminescence Cell-Based Dose Retest to Confirm Inhibitors of Cancer Stem Cells. [Related pubchem assays (depositor defined):AID2717, AID2721]; assay type: functional; conditions: Homo sapiens
Beta-lactamase [26] = target: T3, Beta-lactamase (Pseudomonas aeruginosa, UniProt Q79MP6); assay: […] counterscreen for selective VIM-2 inhibitors: dose response biochemical high throughput screening assay to identify inhibitors of IMP-1 metallo-beta-lactamase.
T3 sequence (Q79MP6 whole entry): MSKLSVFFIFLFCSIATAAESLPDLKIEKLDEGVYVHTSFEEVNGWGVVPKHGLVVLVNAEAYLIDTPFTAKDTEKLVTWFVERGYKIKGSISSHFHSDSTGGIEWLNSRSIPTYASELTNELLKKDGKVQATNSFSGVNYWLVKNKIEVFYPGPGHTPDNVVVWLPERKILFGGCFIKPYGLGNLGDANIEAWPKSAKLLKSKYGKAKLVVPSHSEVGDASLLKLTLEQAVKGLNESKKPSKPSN

[27] = target: DNA dC->dU-editing enzyme APOBEC-3A (Homo sapiens, UniProt P31941); assay: APOBEC3A DNA deaminase inhibitors, dose response, biochemical (AID 504722); assay type: functional
Chain of DNA dC->dU-editing enzyme APOBEC-3A (P31941 whole entry): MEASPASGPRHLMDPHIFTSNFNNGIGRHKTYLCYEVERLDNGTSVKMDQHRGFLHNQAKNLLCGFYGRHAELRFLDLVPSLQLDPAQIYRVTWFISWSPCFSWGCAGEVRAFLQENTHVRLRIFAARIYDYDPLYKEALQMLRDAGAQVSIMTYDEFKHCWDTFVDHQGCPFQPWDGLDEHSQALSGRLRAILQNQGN

[28] = target: DNA dC->dU-editing enzyme APOBEC-3G (Homo sapiens, UniProt Q9HC16); assay: Dose Response confirmation of small molecule APOBEC3G DNA Deaminase Inhibitors via a fluorescence-based single-stranded DNA deaminase assay. [Related pubchem assays (depositor defined):AID493012, AID493028]; assay type: functional
Chain of DNA dC->dU-editing enzyme APOBEC-3G (Q9HC16 whole entry): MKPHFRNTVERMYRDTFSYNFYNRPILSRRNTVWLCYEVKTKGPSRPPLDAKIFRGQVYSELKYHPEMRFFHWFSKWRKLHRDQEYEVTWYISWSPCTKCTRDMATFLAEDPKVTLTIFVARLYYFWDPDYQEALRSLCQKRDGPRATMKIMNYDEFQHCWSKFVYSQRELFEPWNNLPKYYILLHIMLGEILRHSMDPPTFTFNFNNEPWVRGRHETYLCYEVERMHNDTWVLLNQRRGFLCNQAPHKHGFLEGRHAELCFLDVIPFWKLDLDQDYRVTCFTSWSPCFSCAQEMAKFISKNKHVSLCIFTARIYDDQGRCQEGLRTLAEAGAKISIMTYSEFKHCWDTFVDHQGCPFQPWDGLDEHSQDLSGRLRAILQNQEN

Beta-lactamase [29] = target: T3, Beta-lactamase; assay: IMP-1 metallo-beta-lactamase inhibitors, dose response, selectivity assay for VIM-2 inhibitor project, biochemical, epi-absorbance (AID 1920)
Beta-lactamase [30] = target: Beta-lactamase (Salmonella choleraesuis (strain SC-B67), UniProt Q5J463); assay: Epi-absorbance-based counterscreen for selective VIM-2 inhibitors: dose response biochemical high throughput screening assay to identify inhibitors of TEM-1 serine-beta-lactamase.
Chain of Beta-lactamase (Salmonella choleraesuis (strain SC-B67), UniProt Q5J463) (Q5J463 whole entry): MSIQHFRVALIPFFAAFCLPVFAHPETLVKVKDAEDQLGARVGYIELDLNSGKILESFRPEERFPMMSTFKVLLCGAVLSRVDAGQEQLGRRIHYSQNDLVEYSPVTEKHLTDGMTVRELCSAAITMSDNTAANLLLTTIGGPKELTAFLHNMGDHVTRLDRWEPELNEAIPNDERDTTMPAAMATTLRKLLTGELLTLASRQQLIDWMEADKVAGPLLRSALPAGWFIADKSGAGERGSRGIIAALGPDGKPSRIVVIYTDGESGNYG

Mu-type opioid receptor = Mu-type opioid receptor (Homo sapiens, UniProt P35372); assay: SAR Analysis of Antagonists of the MOR Receptor using an Image-Based Assay - Set 3. [Related pubchem assays (depositor defined):AID1777, AID1785, AID1786, AID1966, AID2133, AID2136, AID2284, AID2285, AID2420]; assay type: functional
Chain of Mu-type opioid receptor (P35372 whole entry): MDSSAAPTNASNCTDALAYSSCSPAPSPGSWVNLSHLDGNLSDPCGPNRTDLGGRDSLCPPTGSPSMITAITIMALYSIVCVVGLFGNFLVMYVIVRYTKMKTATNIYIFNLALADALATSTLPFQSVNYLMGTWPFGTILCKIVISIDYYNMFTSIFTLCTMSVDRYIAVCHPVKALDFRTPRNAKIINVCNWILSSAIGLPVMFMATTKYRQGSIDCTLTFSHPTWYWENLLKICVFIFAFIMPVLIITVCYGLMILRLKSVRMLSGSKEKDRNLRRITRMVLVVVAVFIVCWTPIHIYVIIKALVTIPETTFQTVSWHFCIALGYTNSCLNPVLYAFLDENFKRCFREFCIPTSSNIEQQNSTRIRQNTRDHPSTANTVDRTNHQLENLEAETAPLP

[31] = target: Delta-type opioid receptor (Homo sapiens, UniProt P41143); assay: SAR Analysis of Antagonists of the DOR Receptor using an Image-Based Assay - Set 3. [Related pubchem assays (depositor defined):AID1777, AID1785]; assay type: functional;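 further: U2OS cells expressing DOR1 and beta-arrestin GFP stimulated with 100 nM SNC80; imaging of GFP-tagged beta-arrestin moving into spots after receptor activation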
Chain of Delta-type opioid receptor (P41143 whole entry): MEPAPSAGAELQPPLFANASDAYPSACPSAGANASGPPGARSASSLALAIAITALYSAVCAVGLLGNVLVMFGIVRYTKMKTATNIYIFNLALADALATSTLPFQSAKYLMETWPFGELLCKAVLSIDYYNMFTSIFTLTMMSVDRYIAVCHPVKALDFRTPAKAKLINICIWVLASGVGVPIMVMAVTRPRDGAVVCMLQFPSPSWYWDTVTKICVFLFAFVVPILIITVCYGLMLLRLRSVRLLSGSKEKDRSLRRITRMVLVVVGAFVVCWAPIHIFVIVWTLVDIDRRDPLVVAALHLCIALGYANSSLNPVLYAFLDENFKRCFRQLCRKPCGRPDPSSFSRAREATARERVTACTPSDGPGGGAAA

Troponin, cardiac muscle = Troponin, cardiac muscle (Homo sapiens, UniProt P19429+P45379+P63316); assay: Fluorescence-based biochemical high throughput dose response assay for activators of the calcium sensitivity of cardiac Regulated Thin Filaments (RTF). [Related pubchem assays (depositor defined):AID493008, AID493018, AID504382, AID504383]; assay type: protein-complex assay
Streptococcus = assay: Group A Streptococcus viability loss, dose response, counter-screen for streptokinase expression inhibitor project, luminescence, BacTiterGlo (AID 1915); assay type: functional, organism-based;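 further: potency for reduction of bacterial viability or growth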
[32] = system: Streptococcus sp. 'group A'; assay: growth inhibition of control SK(-) GAS strain, dose response, counter-screen for streptokinase expression inhibitor project, luminescence, kanamycin, BacTiterGlo, confirmation (AID 1900); assay type: functional, organism-based
Streptokinase A = target: T4, Streptokinase A (Streptococcus pyogenes serotype M1, UniProt P10520); assay: S. pyogenes streptokinase expression inhibitors, potency, dose response, plasminogen activation absorbance, OD405 (AID 1914); assay type: functional, Streptococcus pyogenes M1 GAS;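 further: secreted streptokinase activity via plasminogen activation per viability signal from cell pellet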
T4 sequence (P10520 whole entry): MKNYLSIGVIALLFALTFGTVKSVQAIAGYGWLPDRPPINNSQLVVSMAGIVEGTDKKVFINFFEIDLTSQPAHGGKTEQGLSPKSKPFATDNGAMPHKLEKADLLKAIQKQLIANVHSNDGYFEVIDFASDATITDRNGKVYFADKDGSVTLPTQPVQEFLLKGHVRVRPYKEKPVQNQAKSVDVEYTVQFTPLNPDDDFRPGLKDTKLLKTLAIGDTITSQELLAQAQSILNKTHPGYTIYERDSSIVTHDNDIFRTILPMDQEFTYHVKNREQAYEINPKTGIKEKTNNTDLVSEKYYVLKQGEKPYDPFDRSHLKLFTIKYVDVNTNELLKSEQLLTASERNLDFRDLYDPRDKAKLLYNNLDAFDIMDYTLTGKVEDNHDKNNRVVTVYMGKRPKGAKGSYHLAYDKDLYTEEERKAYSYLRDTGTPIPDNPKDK

CN(C)S(=O)(=O)Oc1ccc(C(=O)Nc2cccc(C(F)(F)F)c2)cc1
CC50 [1]: > 20 µM (active)
CC50 [2]: > 40 µM (active)
CC50 [3]: > 20 µM (active)
IC50 (HEK293 [4]): 12.1 µM (active)
EC50 (HEK293 [5]): 10.9 µM (active)
IC50 (HEK293 [6]): 6.71 µM (active)

O=c1oc2ccccc2cc1-c1cn(-c2ccccc2)c(S)n1
AC50 [7]: 8.78 µM (active)
EC50 [8]: < 0.16 µM (active)
AC50 [9]: 316 nM (active)
AC50 [10]: 19.4 µM (active)
IC50 [11]: 0.00374 µM (active)
IC50 [12]: > 80 µM (inactive)
AC50 [13]: 259 nM (active)
AC50 [14]: 19.4 µM (active)

Cc1ccc(OCc2cc(C(=O)N(C)CCc3nc4ccccc4[nH]3)no2)cc1C
EC50 [8]: > 195 µM (not active)
EC50 [15]: 1.06 µM (active)

CC(NCC(O)COCCC12CC3CC(CC(C3)C1)C2)c1ccccc1 (stereo not given)
CC50 [1]: 13.7 µM (active)
CC50 [2]: 12.5 µM (active)
CC50 [3]: 12.7 µM (active)
AC50 [16]: 11.2 µM (active)
EC50 [17]: 19.9 µM (active)
EC50 [18]: > 60 µM (not active)
AC50 (INS1): 7.3 µM (active)
AC50 [19]: 3.45 µM (active)
AC50 [20]: 6.93 µM (active)
EC50 [21]: 157 nM (active)
AC50 [22]: 13.3 µM (active)
AC50 [23]: 16.8 µM (active)
IC50 [24]: 3.25 µM (active)
IC50 (cells): 14.6 µM (active)
AC50 [25]: 6.14 µM (active)

Sc1nnc(-c2cccs2)n1C1CCCCC1
IC50 (Beta-lactamase [26]): > 59.6 µM (inactive)
IC50 [27]: > 100 µM (inactive)
IC50 [28]: 4.59 µM (active)
IC50 (Beta-lactamase [29]): > 59.6 µM (inactive)
IC50 (Beta-lactamase [30]): > 59.6 µM (inactive)

Cc1ccc(S(=O)(=O)NCc2ccc(C(=O)NCCN(Cc3ccc(Br)cc3)C(C)C)cc2)cc1
IC50 (Mu-type opioid receptor): > 32 µM (inactive)
IC50 [31]: > 32 µM (inactive)

CCC(/C=C1\Oc2ccc(OC)cc2N1C)=C\c1sc2ccccc2[n+]1CCCS(=O)(=O)[O-]
EC50 (Troponin, cardiac muscle): 853 nM (active)

Cc1cc(-c2nnc(S)n2/N=C/c2ccc(C)s2)[nH]n1
IC50 [27]: > 100 µM (inactive)
IC50 [28]: 2.28 µM (active)

C/C(=N\Nc1cc(C)nc(-c2ccccc2O)n1)c1ccccc1O
EC50 (Streptococcus): > 150 µM (not active)
IC50 [11]: 6.71 µM (active)
EC50 [32]: 4.57 µM (active)
EC50 (Streptokinase A): 14 µM (active)
